Measured values reported in patent US20080255134A1 (Artesian Therapeutics, Inc., priority 2004, published 2008).

System: isolated ventricular myocytes
Assay: Sarcomere shortening (contractility) in isolated ventricular myocytes
Format: cell-based, rabbit
Experimental: […] Isoproterenol, a potent β-Adrenergic agonist, can produce large increases in cardiac contraction, calcium transient amplitude, and the rates of relaxation (acceleration of relaxation or lusitropic effect). The effects of isoproterenol are then antagonized with different concentrations of a compound of the present invention.
Cardiac myocytes were digested from healthy white New Zealand male rabbits (3-5 lbs), with enzymatic digestion. Briefly, each animal is anesthetized with ketamine (50 mg/kg) and xylazine (6 mg/kg)-IM injection in hind limb. Once the animal was sedated (˜10-15 min), 0.1-0.3 ml of pentobarbital was injected into the ear vein. The heart was exposed by a cut just below the rib-cage and bilateral thoracotomy and removed rapidly ensuring that aorta remains intact. The heart was immediately placed in oxygenated NT with Ca^2+ placed on ice for rinsing the blood out, cleared from vessels and pericardium, cannulated and maintained at 37° C. The heart was retrogradedly perfused and tissue digested with collagenase and protease. Digested myocytes were subsequently stored in 0.1 mM Ca^2+ normal tyrodes for further analyses. Sarcomere length changes upon treatment with test compounds were recorded at 37° C. in the presence of 2 mM calcium and analyzed with an IonOptix system. Sarcomere length data was acquired for each myocyte over an average of 10 beats duration, at pacing rates of 1, 2, and 3 Hz. Basal percent sarcomere shortening and length-frequency relation of each myocyte was evaluated, and serve as a measure of cellular viability.
In vitro studies were performed using rabbit ventricular tissue, to examine the effects of Compounds 25 and 8c on myocyte contractility. New Zealand male rabbits (1.5-2.5 kg) were anesthetized with ketamine (50 mg/kg) and xylazine (6 mg/kg)-IM. The heart was exposed and removed rapidly to ensure that the aorta remained intact. The ventricular tissue was digested enzymatically. Sarcomere shortening was measured in the presence of 2 mM calcium at 37° C. using an IonOptix system; reported values were at 2 Hz pacing frequency.

O=C1CCC(c2ccc(OCCNCC(O)COc3cccc4[nH]c5ccccc5c34)c(Cl)c2)=NN1 (racemic) [Compound 25, 6-(4-{2-[3-(9H-Carbazol-4-yloxy)-2-hydroxy-propylamino]-ethoxy}-3-chloro-phenyl)-4,5-dihydro-2H-pyridazin-3-one]
blocking of isoproterenol effect on myocyte contractility (0.1 μM isoproterenol): blocking the effects of 0.1 μM isoproterenol | contractility (sarcomere shortening) in isolated ventricular myocytes (2 mM calcium, 37° C., 2 Hz pacing frequency): increased contractility
